In patent publication US5428168A, “Lactol PAF antagonists” (British Biotech Pharmaceuticals Limited, priority 1990, dated 1995):

Assays:
PAF receptor = target: T1, PAF receptor (Homo sapiens, UniProt P25105); assay: Inhibition of [3H]-PAF receptor binding to human platelet plasma membrane (isotopic labelling and filtration); conditions: human platelet membranes, 0.5 nM [3H]-PAF, 0° C., 1 hour
T1 construct: Platelet concentrates were obtained from a hospital blood bank; from tissue; host or cells: human platelets (plasma membrane fraction of lysed platelets from hospital blood bank concentrates)
Method: Compounds of general formula I inhibit PAF-induced functions in both the cellular and tissue levels by changing the PAF binding to its specific receptor site. The ability of compounds of general formula I to inhibit the binding of PAF to its specific receptor binding site on human platelet plasma membranes was measured according to the pharmacological example. […] Platelet concentrates were obtained from a hospital blood bank. These platelet concentrates (500-2500 ml.) were centrifuged at 800 rpm for 10 minutes in a SORVALL RC3B centrifuge to remove the red blood cells present. (The word SORVALL is a trade mark.) The supernatant was subsequently centrifuged at 3,000 rpm in a SORVALL RC3B centrifuge to pellet the platelets present. The platelet rich pellets were resuspended in a minimum volume of buffer (150 mM NaCl, 10 mM Tris, 2 mM EDTA, pH 7.5) and layered onto Ficoll-Paque gradients, 9 ml platelet concentrate to 2 ml Ficoll, and centrifuged at 1,900 rpm for 15 minutes in a SORVALL RT6000 centrifuge. This step removes the residual red blood cells and other nonspecific material such as lymphocytes from the preparation. The platelets which form a band between the plasma and the Ficoll were removed, resuspended in the above buffer and centrifuged at 3,000 rpm for 10 minutes in a SORVALL RT6000 centrifuge. The pelleted platelets were resuspended in buffer (10 mM Tris, 5mM MgCl2, 2 mM EDTA, pH 7.0), snap freezed in liquid N2 and allowed to thaw slowly at room temperature in order to lyse the platelets. The latter step was repeated at least 3 times to ensure proper lysis. The lysed platelets were centrifuged at 3,000 rpm for 10 minutes in a SORVALL RT6000 centrifuge and resuspended in buffer. The latter step was repeated twice in order to remove any cytoplasmic proteins which may hydrolyse the […]. The prepared platelet membranes may be stored at -70° C. After thawing the prepared membranes were centrifuged in a SORVALL RT6000 at 3,000 rpm for 10 minutes and resuspended in assay buffer. The assay was conducted by preparing a series of Tris-buffered solutions of the selected antagonist of predetermined concentrations. […] Incubation was initiated by the addition of 100 μg of the isolated membrane fraction to each of the above solutions at 0° C. […] (The word WHATMAN is a trade mark.) The residue in each case was rapidly washed 4 times with 5 ml cold (4° C.) Tris-buffer solution. […] % Inhibition=[(TB-TBA)/SB]x100 where the specific binding SB=TB-NSB […]

[1] = test system: PAF-induced hypotension in the rat; assay: Reversal of PAF-induced hypotension in anaesthetised rats; assay type: in vivo, rat (male Sprague-Dawley); conditions: for ED50: iv, i.v. bolus, PAF 100 ng/kg/min i.v., straight line interpolation, read-out: ED50 (dose to cause 50% reversal of the hypotensive PAF response); for inhibition of PAF-induced hypotension: @ 1 mg/kg i.v.
Method: Male Sprague-Dawley rats (300-400 g) were anaesthetised with a mixture of sodium pentobarbitone, 22.5 mg·kg^-1 and thiopental 62.5 mg·kg^-1. Through a midline incision in the neck, the trachea was cannulated and the animals breathed spontaneously. A carotid artery was cannulated for the measurement of blood pressure and this signal was used to trigger a rate meter to measure heart rate. Both jugular veins were cannulated: one for the infusion of PAF and the other for the bolus administration of test compounds.
PAF, 100 ng·kg^-1 .min^-1 was infused i.v. until a sustained fall in mean blood pressure of 50 mmHg was achieved. […] The peak of this reversal was measured and the dose to cause a 50% reversal of the hypotensive PAF response (ED50) calculated by straight line interpolation and the results are presented in Table 2.

[2] = test system: PAF-induced bronchoconstriction in the guinea pig; assay: Reversal of PAF-induced bronchoconstriction in anaesthetised guinea-pigs (modified Konzett-Rossler); assay type: in vivo, guinea-pig (male Dunkin-Hartley); conditions: Cavia porcellus, iv, PAF 40 ng/kg/min i.v., read-out: ED50 (dose resulting in 50% reversal of PAF-induced bronchoconstriction)
Method: The inhibition of PAF induced bronchoconstriction was measured in anaesthetised artificially ventilated guinea-pigs (450-500 g) using a modified version of the Konzett-Rossler technique (Konzett M and Rossler R, Naunym-Schmiedeb. Arch. Exp. Pathol. Pharmakol., 1940, 197, 71). Male Dunkin-Hartley guinea-pigs were anaesthetised with urethane, 1.6 g·kg^-1. Through a midline neck incision, the trachea was cannulated and the animal ventilated with a constant tidal volume set between 5 and 15 ml, to give a tracheal inflation pressure of 15 mmHg at a rate of 40 per minute. A carotid artery was cannulated for the measurement of blood pressure and heart rate and both jugular veins were cannulated, one for the infusion of PAF and the other for the administration of test compounds. PAF, 40 ng·kg^-1 ·min^-1, was infused i.v. to produced a 100% increase in tracheal inflation pressure, and bronchoconstrictor effects were determined.

T1 sequence (P25105 whole entry): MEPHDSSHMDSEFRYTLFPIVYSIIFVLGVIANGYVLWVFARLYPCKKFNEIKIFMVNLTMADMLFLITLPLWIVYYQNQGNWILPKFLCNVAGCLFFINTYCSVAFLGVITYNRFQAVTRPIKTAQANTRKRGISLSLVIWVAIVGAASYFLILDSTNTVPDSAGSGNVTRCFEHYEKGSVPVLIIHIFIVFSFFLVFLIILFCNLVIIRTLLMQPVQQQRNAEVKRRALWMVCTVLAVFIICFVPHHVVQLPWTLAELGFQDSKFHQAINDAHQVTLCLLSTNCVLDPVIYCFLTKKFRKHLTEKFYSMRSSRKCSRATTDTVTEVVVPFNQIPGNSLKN

IC50 (PAF receptor) [nM]	SMILES	ED50 [1] [µg/kg]	ED50 [2] [µg/kg]	inhibition of PAF-induced hypotension [1] [%]
12000	COc1ccc([C@H]2CC[C@H](OCCCC/C=C\c3cccnc3)O2)cc1OC (relative stereo) [Example 7A, Z-O-(6-(3-Pyridyl)hex-5-enyl)-5-(3,4-dimethoxyphenyl)-gamma-butyrolactol ether]			
12000	COc1ccc([C@H]2CC[C@H](OCCCCCc3cccnc3)O2)cc1OC (relative stereo) [Example 5A, O-(5-(3-Pyridyl)pentyl)-5-(3,4-dimethoxyphenyl)-gamma-butyrolactol ether]			
3000	COc1ccc([C@H]2CC[C@H](OCCCCC#Cc3cccnc3)O2)cc1OC (relative stereo) [Example 6A, O-(6-(3-Pyridyl)hex-5-ynyl)-5-(3,4-dimethoxyphenyl)-gamma-butyrolactol ether]			
1500	COc1ccc([C@H]2CC[C@@H](OCCCCCc3cccnc3)O2)cc1OC (relative stereo) [Example 5B, O-(5-(3-Pyridyl)pentyl)-5-(3,4-dimethoxyphenyl)-gamma-butyrolactol ether]			
25	COc1ccc([C@H]2CC[C@@H](OCCCn3c(C)nc4cnccc43)O2)cc1OC (relative stereo) [Example 30A, O-(3-(1H-2-Methylimidazo[4,5-c]pyridyl)propyl)-5-(3,4-dimethoxyphenyl)-gamma-butyrolactol ether]			
1000	COc1ccc([C@H]2CC[C@H](OC/C=C/c3cccnc3)O2)cc1OC (relative stereo) [Example 10A, E-O-(3-(3-Pyridyl)prop-2-enyl)-5-(3,4-dimethoxyphenyl)-gamma-butyrolactol ether]			
150	COc1ccc([C@H]2CC[C@@H](OC/C=C/c3cccnc3)O2)cc1OC (relative stereo) [Example 10B, E-O-(3-(3-Pyridyl)prop-2-enyl)-5-(3,4-dimethoxyphenyl)-gamma-butyrolactol ether]			
2000	COc1ccc(C2CCC(OCCCC/C=C\c3cccnc3)O2)cc1OC (stereo not drawn) [Example 7B, Z-O-(6-(3-Pyridyl)hex-5-enyl)-5-(3,4-dimethoxyphenyl)-gamma-butyrolactol ether]			

Continued, molecule first:

SMILES	IC50 (PAF receptor) [nM]	ED50 [1] [µg/kg]	ED50 [2] [µg/kg]	inhibition of PAF-induced hypotension [1] [%]
COc1ccc(C2CCC(OCCC#Cc3cccnc3)O2)cc1OC (stereo not drawn) [Example 2, O-(4-(3-Pyridyl)but-3-ynyl)-5-(3,4-dimethoxyphenyl)-gamma-butyrolactol ether]	4000			
Cc1nc2cnccc2n1CCCOC1CCC(c2ccc(Cl)c(Cl)c2)O1 (stereo not drawn) [Example 35, O-(3-(1H-2-Methylimidazo[4,5-c]pyridyl)propyl)-5-(3,4-dichlorophenyl)-gamma-butyrolactol ether]	5	2		
COc1ccc(C2CCC(OCCCCc3cccnc3)O2)cc1OC (stereo not drawn) [Example 3, O-(4-(3-Pyridyl)butyl)-5-(3,4-dimethoxyphenyl)-gamma-butyrolactol ether]	6000			
COc1ccc(C2CCC(OCc3csc(-c4cccnc4)n3)O2)cc1OC (stereo not drawn) [Example 27, O-((2-(3-Pyridyl)-4-thiazolyl)methyl)-5-(3,4-dimethoxyphenyl)-gamma-butyrolactol ether]	10000	120		
COc1ccc(C2CCC(OC(C)CCc3cccnc3)O2)cc1OC (stereo not drawn) [Example 12, O-(1-Methyl-3-(3-pyridyl)propyl)-5-(3,4-dimethoxyphenyl)-gamma-butyrolactolether]	3000			
COc1ccc(C2CCC(OCCCC#Cc3cccnc3)O2)cc1OC (stereo not drawn) [Example 4, O-(5-(3-Pyridyl)pent-4-ynyl)-5-(3,4-dimethoxyphenyl)-gamma-butyrolactol ether]	5000			
COc1ccc(C2CCC(OCCCCn3c(C)nc4cnccc43)O2)cc1OC (stereo not drawn) [Example 31, O-(4-(1H-2-Methylimidazo[4,5-c]pyridyl)butyl)-5-(3,4-dimethoxyphenyl)-gamma-butyrolactol ether]		3		
COc1ccc(C2CCC(OCCCn3c(C)nc4cnccc43)O2)cc1OC (stereo not drawn) [Example 30, O-(3-(1H-2-Methylimidazo[4,5-c]pyridyl)propyl)-5-(3,4-dimethoxyphenyl)-gamma-butyrolactol ether]	15	1	0.4	
COc1ccc(C2CCC(OCc3ccc(-n4c(C)nc5ccccc54)cc3)O2)cc1OC (stereo not drawn) [Example 23, O-((4-(1H-2-Methylbenzimidazyl)phenyl)methyl)-5-(3,4-dimethoxyphenyl)-gamma-butyrolactol ether]	900			
Cc1nc2cnccc2n1CCCOC1CCC(c2ccc(Br)cc2)O1 (stereo not drawn) [Example 34, O-(3-(1H-2-Methylimidazo[4,5-c]pyridyl)propyl)-5-(4-bromophenyl)-gamma-butyrolactol ether]	10			
COc1ccc(C2CCC(OCCCn3c(C)nnc3C)O2)cc1OC (stereo not drawn) [Example 29, O-(3-(3,5-Dimethyl-1,2,4-triazol-4-yl)propyl)-5-(3,4-dimethoxyphenyl)-gamma-butyrolactol ether]	250			
COc1ccc([C@H]2CC[C@@H](OCCCc3ccc[n+](C)c3)O2)cc1OC (relative stereo) [Comparative Example B, cis-O-(3-(3-N-methylpyridyl)propyl)-5-(3,4-dimethoxyphenyl)-gamma-butyrolactol ether iodide, reference compound]	1000	> 1000		10
Cc1nc2cnccc2n1CCCOC1CCC(c2ccc(F)cc2)O1 (stereo not drawn) [Example 33, O-(3-(1H-2-Methylimidazo[4,5-c]pyridyl)propyl)-5-(4-fluorophenyl)-gamma-butyrolactol ether]	7	1		
COc1ccc(C2CCC(OCCCn3c(C)nc4cnccc43)O2)cc1Cl (stereo not drawn) [Example 36, O-(3-(1H-2-Methylimidazo[4,5-c]pyridyl)propyl)-5-(3-chloro-4-methoxyphenyl)-gamma-butyrolactol ether]	3	2		
COc1ccc(C2CCC(OCc3ccc(Cn4c(C)nc5ccccc54)cc3)O2)cc1OC (stereo not drawn) [Example 24, O-((4-(1H-2-Methylbenzimidazylmethyl)phenyl)methyl)-5-(3,4-dimethoxyphenyl)-gamma-butyrolactol ether]	2000			
COc1ccc([C@H]2CC[C@H](OCCCc3cccnc3)O2)cc1OC (relative stereo) [Example 1A, trans-O-(3-(3-pyridyl)propyl)-5-(3,4-dimethoxyphenyl)-gamma-butyrolactol ether]	4000	27		
COc1ccc([C@H]2CC[C@H](OCCCc3ccc[n+](C)c3)O2)cc1OC (relative stereo) [Comparative Example A, trans-O-(3-(3-N-methylpyridyl)propyl)-5-(3,4-dimethoxyphenyl)-gamma-butyrolactol ether iodide, reference compound]	3000	> 1000		31
